Changes are numbered by the printed parent chain. Residues, ends and D or L forms follow the SMILES beside them. *: point of attachment. Cbz = O=C(OCc1ccccc1)*; CH2F = FC*
Legend:
cathepsin B and legumain = test: In vivo labeling of cathepsin B and legumain in kidney and spleen of normal mice; conditions: intravenous, tissues collected 2 hrs after injection
Protocol: The present selective caspase inhibitors may be used for in vivo imaging. Cy5-fluorescent labeled versions of AB46 and AB50 were injected into normal mice and labeling of cathepsins and legumain in kidney and spleen was monitored (FIG. 14).
Normal mice were intravenously injected with the probes and tissues were collected 2 hrs after injection. Tissues were homogenized and total protein samples were analyzed by SDS-PAGE followed by scanning of the gel using a fluorescent scanner.

caspase-3 [1] = biological target: T1, caspase-3 (Mus musculus, UniProt P70677); test: In vivo labeling of caspase-3 in the thymus of dexamethazone treated mice; conditions: dexamethazone 40 mg/kg IP, probe by tail vein after 12 or 24 hrs, 3 hrs circulation
T1 construct: from tissue; host or cells: thymus of Balb-c mice
T1 sequence (P70677 29-175 limits assumed): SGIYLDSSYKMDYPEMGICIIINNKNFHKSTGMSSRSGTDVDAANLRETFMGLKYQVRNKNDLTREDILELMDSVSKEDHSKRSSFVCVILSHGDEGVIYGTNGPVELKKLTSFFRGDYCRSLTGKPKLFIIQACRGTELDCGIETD
T1 sequence (P70677 176-277 limits assumed): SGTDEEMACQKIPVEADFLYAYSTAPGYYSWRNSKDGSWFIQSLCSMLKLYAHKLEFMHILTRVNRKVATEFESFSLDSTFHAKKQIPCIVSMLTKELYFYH
Text: The following example utilizes dexamethazone-induced apoptosis in the thymus. See, Cristina et al., “Dexamethasone-induced apoptosis of thymocytes: role of glucocorticoid receptor-associated Src kinase and caspase-8 activation,” prepublished online as a Blood First Edition Paper on Aug. 29, 2002; DOI 10.1182/blood-2002-06-1779. This is a particularly simple model that allows one to activate apoptosis specifically in the thymus by injection of normal mice with low doses of dexamethazone. […] Also, one can monitor changes in activation of caspases with time after induction of apoptosis.
Wild Type Balb-c mice were injected with dexamethazone (40 mg/kg) by IP injection. After 12 or 24 hrs the general caspase probe AB50 was injected by tail vein and the probe allowed to circulate for 3 hrs, at which time tissues from thymus, lung, liver, and kidney were collected. We removed the thymus, kidney and lung and imaged the whole organs using the IVIS2000 system. The tissues were then analyzed by SDS-PAGE and fluorescent scanning of the gels. For comparison we monitored the levels of cleaved, active caspase-3 using a specific antibody. […] An antibody against actin was used as a loading control.

[2] = test system: death receptor-mediated liver injury; conditions: animal models; cited from earlier work
[3] = test system: extrinsic and intrinsic apoptotic pathways after spinal cord injury; conditions: animal models; cited from earlier work
sepsis = conditions: mouse model; cited from earlier work
Caspase-8 = Caspase-8 (Homo sapiens, UniProt Q14790); test: Kinetic compound screening, progress curve method, caspase-8; format: biochemical
Caspase-8, sequence (Q14790 217-479): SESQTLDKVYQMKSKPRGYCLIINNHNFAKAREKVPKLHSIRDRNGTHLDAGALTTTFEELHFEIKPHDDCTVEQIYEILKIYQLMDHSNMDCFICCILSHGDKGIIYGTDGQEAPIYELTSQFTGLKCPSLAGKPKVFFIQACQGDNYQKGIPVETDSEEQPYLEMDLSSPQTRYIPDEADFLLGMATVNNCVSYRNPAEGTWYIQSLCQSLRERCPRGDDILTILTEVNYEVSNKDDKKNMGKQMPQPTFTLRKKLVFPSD
Summary of the method: (§1)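 Progress-curve method under pseudo-first-order kinetics, giving Ki(app) (kobs/I, M^−1s^−1), in caspase reaction buffer. Active enzyme at 5 nM (caspase-3, -7), 10 nM (caspase-8) or 50 nM (caspase-9), preactivated at 37 °C for 5, 10 or 40 min respectively. Some caspase-9 compounds also run with 1 M sodium citrate replacing sucrose.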

Caspase-9 = biological target: T2, Caspase-9 (Homo sapiens, UniProt P55211); test: Kinetic compound screening, progress curve method, caspase-9; format: biochemical; conditions: NI = no inhibition at concentrations tested
T2 sequence (P55211 1-416): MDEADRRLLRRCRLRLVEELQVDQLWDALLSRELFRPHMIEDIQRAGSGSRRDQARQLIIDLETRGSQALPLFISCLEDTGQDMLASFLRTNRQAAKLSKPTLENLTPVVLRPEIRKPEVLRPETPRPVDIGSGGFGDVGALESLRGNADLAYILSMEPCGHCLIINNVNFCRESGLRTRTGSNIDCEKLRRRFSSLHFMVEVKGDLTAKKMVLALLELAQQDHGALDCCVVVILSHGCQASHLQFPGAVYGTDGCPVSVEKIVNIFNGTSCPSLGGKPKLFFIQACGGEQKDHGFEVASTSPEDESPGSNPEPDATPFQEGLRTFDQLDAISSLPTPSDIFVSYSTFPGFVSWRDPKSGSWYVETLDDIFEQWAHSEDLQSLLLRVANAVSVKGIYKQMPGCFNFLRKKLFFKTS
Summary of the method: as §1

Caspase-3 [4] = biological target: T3, Caspase-3 (Homo sapiens, UniProt P42574); test: Kinetic compound screening, progress curve method, caspase-3; format: biochemical
T3 sequence (P42574 29-175 limits assumed): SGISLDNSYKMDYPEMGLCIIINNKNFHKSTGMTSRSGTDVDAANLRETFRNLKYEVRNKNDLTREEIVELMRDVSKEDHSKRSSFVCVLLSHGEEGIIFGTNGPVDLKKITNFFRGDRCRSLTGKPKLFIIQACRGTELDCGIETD
T3 sequence (P42574 176-277 limits assumed): T1 sequence (P70677 176-277 limits assumed) with T3V, E5D, E6D, Q10H, S46A, L50Q, H53D, L77F, S79A
Summary of the method: as §1

[5] = test system: Myocardial infarction and the resulting death of myocytes; conditions: animal models; cited from earlier work
Caspase-7 = biological target: T4, Caspase-7 (Homo sapiens, UniProt P55210); test: Kinetic compound screening, progress curve method, caspase-7; format: biochemical
T4 sequence (P55210 1-303): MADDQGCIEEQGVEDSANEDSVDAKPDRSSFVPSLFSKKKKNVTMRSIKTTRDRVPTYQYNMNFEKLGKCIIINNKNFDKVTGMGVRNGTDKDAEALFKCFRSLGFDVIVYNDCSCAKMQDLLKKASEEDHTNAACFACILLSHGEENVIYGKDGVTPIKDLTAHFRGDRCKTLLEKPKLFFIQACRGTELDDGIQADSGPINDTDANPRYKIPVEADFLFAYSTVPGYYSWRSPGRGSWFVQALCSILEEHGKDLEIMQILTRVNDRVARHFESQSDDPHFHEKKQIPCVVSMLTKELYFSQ
Summary of the method: as §1

[6] = test system: legumain and cathepsin B in RAW cell extracts; test: Direct labeling of RAW cell extracts with Cy5 probes; format: binding; conditions: varying concentrations
Text: Cy5 fluorescently labeled versions of the three best caspase probes were compared in direct labeling experiments using recombinant caspase-3 (FIG. 13, bottom panels) and RAW cell extracts (FIG. 13, top panels). […] All probes have similar reactivity towards recombinant caspase-3.

For `Cc1cccc(C)c1C(=O)OCC(=O)[C@H](CC(=O)O)NC(=O)C1CCCN1C(=O)[C@@H](CCC(=O)O)NC(=O)Cc1ccc(O)c([N+](=O)[O-])c1` (stereo partly drawn) [AB50, NP-E-P- D-AOMK], the “in vivo labeling in kidney and spleen” value (cathepsin B and legumain) was “only labeled legumain” and the “in vivo labeling of caspase-3 in thymus” value (caspase-3 [1]) was “Bands can be clearly seen at the caspase-3 estimated MW”.
In the case of `COC(=O)C[C@H](NC(=O)[C@H](C)NC(=O)[C@@H](NC(=O)OCc1ccccc1)C(C)C)C(=O)CF` [ZVAD-fmk, benzyloxycarbonyl-Val-Ala-Asp-fluoromethylketone, reference compound] (Cbz-Val-Ala-Asp(OMe)-CH2F), the “protection against liver injury” value [2] is given as “protective and efficiently blocked death receptor-mediated liver injury”, the “effect after spinal cord injury” value [3] is given as “reduced lesion size and improved motor function” and the effect on sepsis (sepsis) is given as “efficiently reduced”. The “Ki(app) Caspase-8” value (Caspase-8; Table III, Ki(app) = Kass or Kobs/I, 10 nM active caspase-8) was 203286 M⁻¹ s⁻¹, the “Caspase-8 Ki (app)” value (Caspase-8; Table IV, NI = no inhibition at concentrations tested) was 203,286 M-1s-1 and the “Ki(app) Caspase-9” value (Caspase-9; Table III, Ki(app) = Kass or Kobs/I, 50 nM active caspase-9) was <5,000 M^−1s^−1. For the same compound, the “Caspase-9 Ki (app)” value (Caspase-9; Table IV) was <5,000 M-1s-1, the “Ki(app) Caspase-3” value (Caspase-3 [4]; Table III, Ki(app) = Kass or Kobs/I, 5 nM active caspase-3) was 25922 M⁻¹ s⁻¹ and the “Caspase-3 Ki(app)” value (Caspase-3 [4]; Table IV) was 25,922 M-1s-1. For the same compound, the “effect on myocardial infarction and death of myocytes” value [5] was “ameliorated”, the “Ki(app) Caspase-7” value (Caspase-7; Table III, Ki(app) = Kass or Kobs/I, 5 nM active caspase-7) was <5,000 M^−1s^−1 and the “Caspase-7 Ki (app)” value (Caspase-7; Table IV) was <5,000 M-1s-1.
With Cy5-hex-EPD-AOMK [AB50-Cy5] the “direct labeling of off targets in RAW cell extracts” value [6] was “only labels legumain”.

Reference: patent publication US20100068150A1, “Selective Caspase Inhibitors” (The Board of Trustees of the Leland Stanford Junior …, priority 2006, published 2010)
